Reference: patent EP2688405B1 (priority 2011, dated 2012)
Converted amounts (≈) assume the structure as drawn. Read-outs that look alike come from different tables or passages of the source.

Experiments:
Type in all cases: cell-based
Botrytis cinerea = experiment: Microtest with mixtures of active compounds, grey mold (Botrci); conditions: single compound
Phytophthora infestans = conditions: Phytin, single compound
Pyricularia oryzae = conditions: Pyrior, single compound
[1] = tested on: Staphylococcus aureus ATCC 29213; experiment: Minimum Inhibitory Concentration (MIC) test, broth microdilution; conditions: ATCC 29213 / DSM 2569, IsoSensitest broth, 24 hours at 37°C, no growth (OD smaller than 0.1)
[2] = tested on: Pseudomonas aeruginosa ATCC 27853; experiment: as above; conditions: ATCC 27853 / DSM 1117, IsoSensitest broth, 24 hours at 37°C, no growth (OD smaller than 0.1)
Septoria tritici = experiment: Microtest with mixtures of active compounds, leaf blotch on wheat (Septtr)

SMILES: Fc1ccc([C@]2(Cn3cncn3)O[C@H]2c2ccccc2Cl)cc1 (racemic) [Epoxiconazole]
- Observed efficacy (Botrytis cinerea; 0.063 ppm): 34%
- Observed efficacy (Phytophthora infestans; 0.25 ppm): 11%
- Observed efficacy (Pyricularia oryzae; 0.25 ppm): 5%

SMILES: CCn1cc(C(=O)O)c(=O)c2ccc(C)nc21 [Control 3, Nalidixic acid]
- MIC [1]: 64 µg/mL (≈ 276 µM)
- MIC [2]: 1020 µg/mL (≈ 4410 µM)

SMILES: CC1=C(C(=O)O)N2C(=O)[C@@H](NC(=O)[C@H](N)c3ccccc3)[C@H]2SC1 [Control 1, Cephalexine]
- MIC [1]: 4 µg/mL (≈ 11.5 µM)
- MIC [2]: > 4100 µg/mL

SMILES: CC(=O)[O-].CCCCn1cc[n+](CCCC)c1 [C2, 1,3-Dibutylimidazolium acetate]
- MIC [1]: 2050 µg/mL
- MIC [2]: 4100 µg/mL

SMILES: Fc1ccc([C@@]2(Cn3ncnc3S)O[C@@H]2c2ccccc2Cl)c(F)c1 (relative stereo) [Azole*, 2-[rel-(2S;3R)-3-(2-chlorophenyl)-2-(2,4-difluorophenyl)-oxiranylmethyl]-2H-[1,2,4]triazole-3-thiol]
- Observed efficacy (Botrytis cinerea; 1 ppm): 15%
- Observed efficacy (Phytophthora infestans; 4 ppm): 20%
- Observed efficacy (Pyricularia oryzae; 16 ppm): 65%
- Observed efficacy (Septoria tritici; 0.25 ppm): 4%
- Observed efficacy (Septoria tritici; 4 ppm): 40%

SMILES: COC(=O)N(OC)c1ccccc1COc1ccn(-c2ccc(Cl)cc2)n1 [Pyraclostrobin]
- Observed efficacy (Botrytis cinerea; 0.016 ppm): 0%
- Observed efficacy (Phytophthora infestans; 0.063 ppm): 24%
- Observed efficacy (Septoria tritici; Septtr, single compound, 0.001 ppm): 38%

SMILES: Cn1cc(C(=O)Nc2ccccc2-c2cc(F)c(F)c(F)c2)c(C(F)F)n1 [Fluxapyroxad]
- Observed efficacy (Botrytis cinerea; 0.016 ppm): 13%
- Observed efficacy (Phytophthora infestans; 0.063 ppm): 12%
